Reference: patent publication US20090082402A1, “Methods of treating genitourinary disorders using inhibitors of soluble epoxide hydrolase” (Roche Palo Alto LLC, priority 2006, published 2009)

Tested on: bladder smooth muscle
Assay: Contraction studies on isolated rat bladder strips with electrical field stimulation
Assay type: cell-based, Sprague-Dawley rat
Conditions: isolated bladder tissue
Description: Bladder strips from (male/female) Sprague-Dawley (Charles River) rat bladders were mounted in 10 ml tissue baths maintained at 37 C, containing 10 ml of a saline solution consisting of: NaCl (118.5 mM), KCl (4.8 mM), NaHCO3 (25 mM), KH2PO4 (1.2 mM), MgSO4 (1.2 mM), CaCl2 (2.5 mM), and glucose (11.0 mM). The bladder strips were aerated with a mixture of 95% O2 and 5% CO2. The tissues were initially equilibrated for one h with 1 g. resting weight. The control response to 67 mM KCl was then determined. Electrical field stimulation (EFS) was provided through platinum electrodes of 1.14 cm^2 surface area located one cm apart on either side of the tissue. Stimulation to the platinum electrodes was provided by a GRASS Medical Instruments (Quincy, Mass.) S88 Square Pulse Stimulator set to deliver 10 V pulses with a 0.5 ms pulse duration in a pulse train of 10 seconds at either 1, 2, 4, or 8 Hz.

Row | SMILES | effect on bladder smooth muscle stimulated by low frequency electric fields (relaxation)
1 | CCCCC/C=C\CC1OC1C/C=C\C/C=C\CCCC(=O)O (stereo not shown) [11,12-EET, 11,12-epoxyeicosatrienoic acid] | no effects
2 | CCCCCC1OC1CC=CCC=CCC=CCCCC(=O)O (stereo not shown) [14,15-EET, 14,15-epoxyeicosatrienoic acid] | relaxes bladder smooth muscle
3 | CCCCCC(O)C(O)CC=CCC=CCC=CCCCC(=O)O (stereo not shown) [14,15-DHET, 14,15-dihydroxyeicosatrienoic acid] | no effects
4 | CCCCC/C=C\C/C=C\CC1OC1C/C=C\CCCC(=O)O (stereo not shown) [8,9-EET, 8,9-epoxyeicosatrienoic acid] | no effects
